In ChEMBL document CHEMBL1795343, “SAR of 2-amino and 2,4-diamino pyrimidines with in vivo efficacy against Trypanosoma brucei” (Bioorg Med Chem Lett, 2011):
pIC50: −log10 of the molar value. ≈ marks a conversion by molar mass, not a printed value.

What was measured:
[1] = test system: Trypanosoma brucei brucei; assay: Antitrypanosomal activity against Trypanosoma brucei brucei; type: functional, organism-based
[2] = test system: L929; assay: Cytotoxicity against mouse L929 cells; type: cell-based
[3] = test system: MDCK; assay: Absorption quotient of the compound across MDCK cells expressing human MDR1; type: ADME, cell-based, Canis lupus familiaris; details: dog
[4] = test system: Trypanosoma brucei brucei; assay: Antitrypanosomal activity against Trypanosoma brucei brucei infected in nonCNS acute HAT mouse model assessed as cure rate at 20 mg/kg, ip administered after 30 days; type: functional; details: route intraperitoneal
[5] = test system: Trypanosoma brucei brucei; assay: Antitrypanosomal activity against Trypanosoma brucei brucei infected in nonCNS acute HAT mouse model assessed as cure rate at 20 mg/kg, po administered after 30 days; type: functional
[6] = Half life in S9 microsomes; type: ADME, subcellular, S9 fraction
[7] = test system: MDCK; assay: Permeability of the compound across MDCK cells expressing human MDR1; type: ADME, cell-based, Canis lupus familiaris; details: dog
[8] = test system: MDR1 (P-gp); assay: Apparent permeability of the compound across MDCK cells expressing human MDR1 in absence of P-gp inhibitor GF120918; type: ADME, cell-based, Canis lupus familiaris; details: dog
[9] = Aqueous solubility of the compound; type: physicochemical; details: buffer
[10] = test system: Trypanosoma brucei brucei; assay: Antitrypanosomal activity against Trypanosoma brucei brucei in nonCNS acute HAT mouse model assessed as cure rate; type: functional

pIC50 [1]	half-life [6] [h]	Compound	pIC50 [2]	also measured
6.96		COc1ccccc1C(=O)c1cnc(NC2CCN(C(=O)Nc3cccc(C)c3)CC2)nc1N	5.15	
6.77	> 5.83	COc1ccc(F)cc1C(=O)c1cnc(NC2CCN(S(C)(=O)=O)CC2)nc1N		AQ [3]: 0.49; Activity [4]: 100%; Activity [5]: 100%; permeability [7]: impermeable; Papp [8]: 27.2 ×10⁻⁶ cm/s
< 4.92		COc1ccc(C(=O)c2cnc(NC3CCN(S(C)(=O)=O)CC3)nc2N)cc1		
6.39		COc1ccccc1C(=O)c1cnc(NC2CCN(C(=O)Nc3ccccc3C)CC2)nc1N	5.00	
7.06	1.6	COc1ccccc1C(=O)c1cnc(NC2CCN(c3nc4ccccc4[nH]3)CC2)nc1N	5.12	solubility [9]: 13 µM (≈ 5.77 µg/mL)
7.19	2.53	COc1ccccc1C(=O)c1cnc(NC2CCN(C(=O)Nc3ccc(F)cc3)CC2)nc1N	5.34	solubility [9]: 25 µM (≈ 11.6 µg/mL)
5.74		Cc1ccccc1C(=O)c1cnc(NC2CCN(S(C)(=O)=O)CC2)nc1N		
6.54	0.667	COc1ccccc1C(=O)c1cnc(NC2CCN(c3nc4ccccc4s3)CC2)nc1N	4.82	
7.37	2.82	COc1ccccc1C(=O)c1cnc(NC2CCN(C(=O)Nc3cccc(F)c3)CC2)nc1N	5.03	solubility [9]: 13 µM (≈ 6.04 µg/mL)
5.35		COc1ccccc1C(=O)c1cnc(NCCCNC(=O)Nc2ccccc2)nc1N	4.96	
6.54		COc1cccc(NC(=O)N2CCC(Nc3ncc(C(=O)c4ccccc4OC)c(N)n3)CC2)c1	5.16	
6.72		COc1ccccc1NC(=O)N1CCC(Nc2ncc(C(=O)c3ccccc3OC)c(N)n2)CC1	5.92	
6.59		CCOc1ccccc1C(=O)c1cnc(NC2CCN(C(=O)Nc3ccccc3)CC2)nc1N		
5.74	3.72	COc1ccccc1C(=O)c1cnc(NC2CCN(S(C)(=O)=O)CC2)nc1		
5.82		COc1ccccc1C(=O)c1cnc(NC2CCN(c3nc4ccccc4n3C)CC2)nc1N	< 4.66	
5.51		COc1ccccc1C(=O)c1cnc(NC2CCN(c3nccs3)CC2)nc1N	< 4.62	
< 4.92		COc1ccccc1C(=O)c1cnc(N2CCN(C(=O)Nc3ccccc3)CC2)nc1N	< 4.57	
5.00		COc1cccc(C(=O)c2cnc(NC3CCN(S(C)(=O)=O)CC3)nc2N)c1		
6.89		COc1ccccc1C(=O)c1cnc(NC2CCN(C(=O)Nc3ccccc3F)CC2)nc1N	5.39	

pIC50 [1]	half-life [6] [h]	Compound	pIC50 [2]	also measured
< 4.96		COc1ccccc1C(=O)c1cnc(N[C@H]2CC[C@@H](C(=O)Nc3ccccc3)CC2)nc1N	< 4.66	
5.80	1.22	COc1ccccc1C(=O)c1cnc(NC2CCN(C(=O)Nc3ccccc3)CC2)nc1C		
7.35	1.6	COc1ccccc1C(=O)c1cnc(NC2CCN(C(=O)Nc3ccccc3)CC2)nc1N	5.12	AQ [3]: 0.63; Activity [4]: 100%; Activity [5]: 100%; solubility [9]: 25 µM (≈ 11.2 µg/mL); permeability [7]: impermeable; Papp [8]: 15.1 ×10⁻⁶ cm/s
6.43	0.133	COc1ccccc1C(=O)c1cnc(NC2CCN(S(=O)(=O)Cc3ccccc3)CC2)nc1N	5.04	solubility [9]: 2 µM (≈ 0.963 µg/mL)
6.77		CCc1ccccc1C(=O)c1cnc(NC2CCN(C(=O)Nc3ccccc3)CC2)nc1N		
6.48	2.8	COc1ccccc1C(=O)c1cnc(NC2CCN(C(=O)Nc3ccccc3)CC2)nc1		AQ [3]: 0.14; Activity [10]: 33%; Papp [8]: 39.8 ×10⁻⁶ cm/s
6.44		COc1ccc(NC(=O)N2CCC(Nc3ncc(C(=O)c4ccccc4OC)c(N)n3)CC2)cc1	5.47	
5.26		COc1ccccc1C(=O)c1cnc(NC2CCN(C(=O)Nc3ccccc3)C2)nc1N (stereo not drawn)	4.89	
7.52		COc1ccc(F)cc1C(=O)c1cnc(NC2CCN(C(=O)Nc3ccccc3)CC2)nc1N		
5.34		COc1ccccc1C(=O)c1cnc(N[C@H]2CC[C@H](C(=O)Nc3ccccc3)CC2)nc1N	5.34	
< 4.85		COc1ccccc1C(=O)c1cnc(NC2CCNCC2)nc1N		
5.48		COc1ccccc1C(=O)c1cnc(NC2CCN(C(C)=O)CC2)nc1N	< 4.57	
6.51	0.75	COc1ccccc1C(=O)c1cnc(NC2CCN(c3nc4ccccc4[nH]3)CC2)nc1		AQ [3]: 0.77; Papp [8]: 11.4 ×10⁻⁶ cm/s
6.24		COc1ccc(F)cc1C(=O)c1cnc(NC2CCN(S(C)(=O)=O)CC2)nc1		AQ [3]: 0.18; Activity [10]: 66%; Papp [8]: 56.1 ×10⁻⁶ cm/s
6.96		COc1ccccc1C(=O)c1cnc(NC2CCN(C(=O)Nc3ccc(C)cc3)CC2)nc1N	5.54	
< 4.92	7.23	COc1ccccc1C(=O)c1cnc(NC2CCN(S(C)(=O)=O)CC2)nc1C		
5.13		CS(=O)(=O)N1CCC(Nc2ncc(C(=O)c3ccccc3)c(N)n2)CC1		
6.18	> 5.83	COc1ccccc1C(=O)c1cnc(NC2CCN(S(C)(=O)=O)CC2)nc1N	4.96	Activity [4]: 100%; Activity [5]: 100%; solubility [9]: 50 µM (≈ 20.3 µg/mL); permeability [7]: impermeable
6.47	0.533	COc1ccccc1C(=O)c1cnc(NC2CCN(C(=O)Cc3ccccc3)CC2)nc1N	4.70	solubility [9]: 6 µM (≈ 2.67 µg/mL)
